Laboratory results reported in US7494997B2, “Amide derivative” (Nippon Shinyaku Co., Ltd., priority 2002, dated 2009).

How the values were obtained:
E255K mutant BCR-ABL = target: T1, E255K mutant BCR-ABL (Homo sapiens, UniProt P00519, E255K); assay: Self-phosphorylation inhibitory effect on mutant (E255K) BCR-ABL in transfected 293T cells (Western blot, PY99); assay type: cell-based; conditions: 2 hours
T1 construct: expressed in transfected cells; host or cells: 293T cells (ATCC), Lipofectamine transfection; the other entry of the earlier key: BCR (P11274, Breakpoint cluster region protein)
T1 sequence (P00519 28-1130 E255K limits assumed): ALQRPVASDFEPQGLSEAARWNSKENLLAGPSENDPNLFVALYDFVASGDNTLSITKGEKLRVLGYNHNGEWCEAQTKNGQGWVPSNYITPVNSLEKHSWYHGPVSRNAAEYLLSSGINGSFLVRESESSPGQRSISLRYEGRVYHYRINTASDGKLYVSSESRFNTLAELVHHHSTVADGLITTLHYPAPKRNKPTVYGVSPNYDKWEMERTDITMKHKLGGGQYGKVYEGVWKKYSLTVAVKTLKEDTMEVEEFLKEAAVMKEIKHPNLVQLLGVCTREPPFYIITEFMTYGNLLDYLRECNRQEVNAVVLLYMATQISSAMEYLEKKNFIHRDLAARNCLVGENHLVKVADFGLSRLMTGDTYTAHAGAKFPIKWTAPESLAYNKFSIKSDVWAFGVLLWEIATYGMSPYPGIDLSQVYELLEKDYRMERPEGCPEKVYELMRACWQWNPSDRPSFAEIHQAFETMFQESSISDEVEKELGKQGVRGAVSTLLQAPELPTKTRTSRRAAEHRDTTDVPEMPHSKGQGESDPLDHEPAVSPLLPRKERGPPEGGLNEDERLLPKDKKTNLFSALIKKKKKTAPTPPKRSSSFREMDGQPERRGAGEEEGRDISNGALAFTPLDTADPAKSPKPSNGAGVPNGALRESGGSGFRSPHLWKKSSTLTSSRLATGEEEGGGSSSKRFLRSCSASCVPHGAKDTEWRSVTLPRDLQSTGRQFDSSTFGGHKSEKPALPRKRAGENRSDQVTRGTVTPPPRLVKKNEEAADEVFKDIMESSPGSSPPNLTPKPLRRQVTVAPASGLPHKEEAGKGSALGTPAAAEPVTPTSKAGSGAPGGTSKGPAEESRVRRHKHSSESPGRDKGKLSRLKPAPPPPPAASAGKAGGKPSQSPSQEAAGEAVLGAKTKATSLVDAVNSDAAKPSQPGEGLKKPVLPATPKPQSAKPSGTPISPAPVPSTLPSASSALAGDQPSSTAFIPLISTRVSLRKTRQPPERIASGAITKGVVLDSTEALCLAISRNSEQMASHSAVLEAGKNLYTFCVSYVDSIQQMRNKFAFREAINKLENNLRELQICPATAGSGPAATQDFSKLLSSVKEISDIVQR
Experimental: The cells were seeded in an amount of 5 ml in a Poly-L-Lysin coated 6 cm dish so as to give 1.2×10^6 cells/well. […] Using a Lipofectamine reagent (manufactured by Invitrogen), 2 μg of E255K mutant bcr-abl gene expression vector was transfected into the cell. […] The dish was incubated in a CO2 incubator for 2 hours. After treatment with trypsin, the cells were collected into a 15 ml centrifuge tube. The tube was centrifuged at 1000 rpm at room temperature for one minute. After removal of the medium, 50 μl of a cell lysis solution was added. The cells were subjected to cytolysis with a mixer. The tube was left to stand at 4° C. for 15 minutes and transferred to 1.5 ml tube. The tube was centrifuged at 12,000 rpm at 4° C. for 15 minutes. The cell lysate was collected into another 1.5 ml tube. The concentration of protein was measured according to BCA method. The samples of cell lysate containing […] of protein was analyzed by SDS-PAGE polyacrylamide. After electrophoresis, the protein was transferred onto a nylon filter (Hybond-P) with wet method at 4° C. overnight. The nylon filter was reacted in 10 ml of PBS/0.1% Tween-20 containing 0.2 μg/ml anti-phosphorylation tyrosin kinase antibody (PY99) (manufactured by Toyobo) at room temperature for one hour. The nylon filter was washed with PBS three times and then reacted 10 ml of PBS/0.1% Tween-20 containing 0.4 μg/ml Anti-mouse IgG AP-conjugated (manufactured by Cell Signaling) at room temperature for one hour. After the nylon filter was washed with PBS four times, self-phosphorylation of p210 BCR-ABL was detected with alkaline phosphatase color developing reagent.
The results are shown as follows: +++: almost perfectly inhibition of phosphorylation; ++: around half of inhibition; +: week inhibition; and −: no inhibition.

K562 cells = assay: Cell growth inhibitory effect, K562 cells (WST-8, 72 hours); conditions: for IC50: Homo sapiens, K562, 72 h, read-out: K562 cells (IC50 value: μM); for Ratio (U937 cells/K562 cells): ratio of IC50 values U937 cells/K562 cells
U937 cells = assay: Cell growth inhibitory effect, U937 cells (WST-8, 72 hours); conditions: Homo sapiens, U-937, 72 h, read-out: U937 cells (IC50 value: μM)

Row | SMILES | Self-phosphorylation inhibitory effect on E255K mutant BCR-ABL (E255K mutant BCR-ABL; 1 μM) | Self-phosphorylation inhibitory effect on E255K mutant BCR-ABL (E255K mutant BCR-ABL; 3 μM) | Self-phosphorylation inhibitory effect on E255K mutant BCR-ABL (E255K mutant BCR-ABL; 10 μM) | melting point | IC50 (K562 cells) | Ratio (U937 cells/K562 cells) (K562 cells) | IC50 (U937 cells) | Self-phosphorylation inhibitory effect on E255K mutant BCR-ABL (E255K mutant BCR-ABL; 0.1 μM) | Self-phosphorylation inhibitory effect on E255K mutant BCR-ABL (E255K mutant BCR-ABL; 0.3 μM)
1 | Cc1ccc(NC(=O)c2ccc(CN3CCN(C)CC3)c(I)c2)cc1Nc1nccc(-c2cccnc2)n1 [Example 2, 3-iodo-4-(4-methylpiperazin-1-ylmethyl)-N-{4-methyl-3-[4-(3-pyridyl)pyrimidin-2-ylamino]phenyl}benzamide] | + | ++ | +++ | 199 to 200 °C (dec.) | 0.0023 µM | 1452.2 | 3.34 µM |  | 
2 | Cc1ccc(NC(=O)c2ccc(CN3CCN(C)CC3)c(Cl)c2)cc1Nc1nccc(-c2cccnc2)n1 [Example 3, 3-chloro-4-(4-methylpiperazin-1-ylmethyl)-N-{4-methyl-3-[4-(3-pyridyl)pyrimidin-2-ylamino]phenyl}benzamide] | − | + | +++ | 193 to 194 °C (dec.) | 0.0046 µM | 1089.1 | 5.01 µM |  | 
3 | Cc1ccc(NC(=O)c2ccc(CN3CCN(C)CC3)c(Br)c2)cc1Nc1nccc(-c2cnccn2)n1 [Example 7, 3-bromo-4-(4-methylpiperazin-1-ylmethyl)-N-{4-methyl-3-[4-(2-pyrazinyl)pyrimidin-2-ylamino]phenyl}benzamide] | − | ++ | +++ | 213 to 214 °C (dec.) | 0.0054 µM | 1205.6 | 6.51 µM |  | 
4 | Cc1ccc(NC(=O)c2ccc(CN3CCN(C)CC3)c(Br)c2)cc1Nc1nccc(-c2cncc(Br)c2)n1 [Example 9, 3-bromo-4-(4-methylpiperazin-1-ylmethyl)-N-{3-[4-(5-bromopyridin-3-yl)pyrimidin-2-ylamino]-4-methylphenyl}benzamide] | + | ++ | +++ | 194 to 195 °C (dec.) | 0.0017 µM | 1094.1 | 1.86 µM |  | 
5 | Cc1ccc(NC(=O)c2ccc(CN3CCN(C)CC3)c(C(F)(F)F)c2)cc1Nc1nccc(-c2cncc(Br)c2)n1 [Example 10, 4-(4-methylpiperazin-1-ylmethyl)-3-trifluoromethyl-N-{3-[4-(5-bromopyridin-3-yl)pyrimidin-2-ylamino]-4-methylphenyl}benzamide] | ++ | +++ | +++ | 171 to 173 °C (dec.) | 0.0014 µM | 2335.7 | 3.27 µM | − | −
6 | Cc1ccc(NC(=O)c2ccc(CN3CCN(C)CC3)c(Br)c2)cc1Nc1nccc(-c2cncnc2)n1 [Example 13, 3-bromo-4-(4-methylpiperazin-1-ylmethyl)-N-{4-methyl-3-[4-(5-pyrimidinyl)pyrimidin-2-ylamino]phenyl}benzamide] | ++ | +++ | +++ | 238 to 240 °C (dec.) | 0.0012 µM | 5166.7 | 6.2 µM | − | +
7 | COc1cc(C(=O)Nc2ccc(C)c(Nc3nccc(-c4cccnc4)n3)c2)cc(OC)c1CN1CCN(C)CC1 [Example 25, 3,5-dimethoxy-4-(4-methylpiperazin-1-ylmethyl)-N-{4-methyl-3-[4-(3-pyridyl)pyrimidin-2-ylamino]phenyl}benzamide] |  |  |  | 201 to 214 °C (dec.) | 0.03 µM | 566.7 | 17 µM |  | 
8 | CCCN1CCN(Cc2ccc(C(=O)Nc3ccc(C)c(Nc4nccc(-c5cccnc5)n4)c3)cc2Br)CC1 [Example 28, 3-bromo-4-[4-(n-propyl)piperazin-1-ylmethyl]-N-{4-methyl-3-[4-(3-pyridyl)pyrimidin-2-ylamino]phenyl}benzamide] |  |  |  | 204 to 205 °C | 0.00065 µM | 10723.1 | 6.97 µM |  | 
9 | Cc1ccc(NC(=O)c2ccc(CN(C)C)c(Br)c2)cc1Nc1nccc(-c2cccnc2)n1 [Example 29, 3-bromo-4-(N,N-dimethylaminomethyl)-N-{4-methyl-3-[4-(3-pyridyl)pyrimidin-2-ylamino]phenyl}benzamide] |  |  |  | 154 to 155 °C | 0.017 µM | >588.2 | > 10 µM |  | 
10 | CCN(CC)Cc1ccc(C(=O)Nc2ccc(C)c(Nc3nccc(-c4cccnc4)n3)c2)cc1Br [Example 30, 3-bromo-4-(N,N-diethylaminomethyl)-N-{4-methyl-3-[4-(3-pyridyl)pyrimidin-2-ylamino]phenyl}benzamide] |  |  |  | 172 to 173 °C | 0.022 µM | >454.5 | > 10 µM |  | 
11 | Cc1ccc(NC(=O)c2ccc(CN3CCCN(C)CC3)c(Br)c2)cc1Nc1nccc(-c2cccnc2)n1 [Example 35, 3-bromo-4-(4-methyl-hexahydro-1H-1,4-diazepin-1-ylmethyl)-N-{4-methyl-3-[4-(3-pyridyl)pyrimidin-2-ylamino]phenyl}benzamide] |  |  |  | 156 to 157 °C | 0.0075 µM | 696.0 | 5.22 µM |  | 
12 | COC(=O)c1cc(C(=O)Nc2ccc(C)c(Nc3nccc(-c4cccnc4)n3)c2)ccc1CN1CCN(C)CC1 [Example 39, 3-methoxycarbonyl-4-(4-methylpiperazin-1-ylmethyl)-N-{4-methyl-3-[4-(3-pyridyl)pyrimidin-2-ylamino]phenyl}benzamide] |  |  |  | 159 to 161 °C (dec.) | 0.035 µM | >285.7 | > 10 µM |  | 
13 | Cc1ccc(NC(=O)c2ccc(CN3CCN(C)CC3)c(C#N)c2)cc1Nc1nccc(-c2cccnc2)n1 [Example 40, 3-cyano-4-(4-methylpiperazin-1-ylmethyl)-N-{4-methyl-3-[4-(3-pyridyl)pyrimidin-2-ylamino]phenyl}benzamide] |  |  |  | 191 to 193 °C (dec.) | 0.0054 µM | 777.8 | 4.2 µM |  | 
